Experimental data published in ChEMBL document CHEMBL2440080, “Synthesis and biological evaluation of novel acylhydrazone derivatives as potential antitumor agents” (Bioorg Med Chem, 2013).

Experiments:
[1] = test system: OVCAR-4; assay: Cytotoxicity against human OVCAR4 cells after 48 hrs by sulforhodamine B assay; type: functional; settings: OVCAR-4, 48 h
[2] = test system: T47D; assay: Cytotoxicity against human T47D cells after 48 hrs by sulforhodamine B assay; type: functional
[3] = test system: CAKI-1; assay: Cytotoxicity against human CAKI-1 cells after 48 hrs by sulforhodamine B assay; type: functional; settings: CAKI-1, 48 h
[4] = test system: KM12; assay: Cytotoxicity against human KM12 cells after 48 hrs by sulforhodamine B assay; type: functional; settings: KM12, 48 h
[5] = test system: RXF 393; assay: Cytotoxicity against human RXF393 cells after 48 hrs by sulforhodamine B assay; type: functional; settings: RXF 393, 48 h
[6] = test system: MOLT-4; assay: Cytotoxicity against human MOLT4 cells after 48 hrs by sulforhodamine B assay; type: functional; settings: MOLT-4, 48 h
[7] = test system: NCI/ADR-RES; assay: Cytotoxicity against human NCI/ADR-RES cells after 48 hrs by sulforhodamine B assay; type: functional
[8] = test system: CCRF-CEM; assay: Cytotoxicity against human CCRF-CEM cells after 48 hrs by sulforhodamine B assay; type: functional
[9] = test system: OVCAR-3; assay: Cytotoxicity against human OVCAR3 cells after 48 hrs by sulforhodamine B assay; type: functional; settings: OVCAR-3, 48 h
[10] = test system: UACC-62; assay: Cytotoxicity against human UACC62 cells after 48 hrs by sulforhodamine B assay; type: functional; settings: UACC-62, 48 h
[11] = test system: U-251; assay: Cytotoxicity against human U251 cells after 48 hrs by sulforhodamine B assay; type: functional; settings: U-251, 48 h
[12] = test system: PC-3; assay: Cytotoxicity against human PC3 cells after 48 hrs by sulforhodamine B assay; type: functional; settings: PC-3, 48 h
[13] = test system: DU-145; assay: Cytotoxicity against human DU145 cells after 48 hrs by sulforhodamine B assay; type: functional; settings: DU-145, 48 h
[14] = test system: HCT-15; assay: Cytotoxicity against human HCT15 cells after 48 hrs by sulforhodamine B assay; type: functional; settings: HCT-15, 48 h
[15] = test system: BT-549; assay: Cytotoxicity against human BT549 cells after 48 hrs by sulforhodamine B assay; type: functional; settings: BT-549, 48 h
[16] = test system: Mus musculus; assay: Toxicity in athymic nude mouse assessed as survival at 400 mg/kg, ip measured after 2 weeks; type: organism-based; design: dose 400 mg/kg, route intraperitoneal; settings: in vivo, 336 h
[17] = Cytotoxicity against human EKVX cells after 48 hrs by sulforhodamine B assay; type: functional
[18] = test system: HL-60(TB); assay: Cytotoxicity against human HL-60(TB) cells after 48 hrs by sulforhodamine B assay; type: functional; settings: HL-60, 48 h
[19] = test system: ACHN; assay: Cytotoxicity against human ACHN cells after 48 hrs by sulforhodamine B assay; type: functional
[20] = test system: SNB-75; assay: Cytotoxicity against human SNB75 cells after 48 hrs by sulforhodamine B assay; type: functional; settings: SNB-75, 48 h
[21] = test system: NCI-H322M; assay: Cytotoxicity against human NCI-H322M cells after 48 hrs by sulforhodamine B assay; type: functional
[22] = test system: M14; assay: Cytotoxicity against human M14 cells after 48 hrs by sulforhodamine B assay; type: functional; settings: M14, 48 h
[23] = test system: RPMI-8226; assay: Cytotoxicity against human RPMI8226 cells after 48 hrs by sulforhodamine B assay; type: functional; settings: RPMI-8226, 48 h
[24] = test system: HOP-92; assay: Cytotoxicity against human HOP92 cells after 48 hrs by sulforhodamine B assay; type: functional; settings: HOP-92, 48 h
[25] = test system: SF-268; assay: Cytotoxicity against human SF268 cells after 48 hrs by sulforhodamine B assay; type: functional; settings: SF-268, 48 h
[26] = test system: SF-295; assay: Cytotoxicity against human SF295 cells after 48 hrs by sulforhodamine B assay; type: functional; settings: SF-295, 48 h
[27] = test system: TK-10; assay: Cytotoxicity against human TK10 cells after 48 hrs by sulforhodamine B assay; type: functional; settings: TK-10, 48 h
[28] = test system: HCT-116; assay: Cytotoxicity against human HCT116 cells after 48 hrs by sulforhodamine B assay; type: functional; settings: HCT-116, 48 h
[29] = test system: SR; assay: Cytotoxicity against human SR cells after 48 hrs by sulforhodamine B assay; type: functional
[30] = test system: OVCAR-8; assay: Cytotoxicity against human OVCAR8 cells after 48 hrs by sulforhodamine B assay; type: functional; settings: OVCAR-8, 48 h
[31] = test system: IGROV-1; assay: Cytotoxicity against human IGROV1 cells after 48 hrs by sulforhodamine B assay; type: functional; settings: IGROV-1, 48 h
[32] = test system: NCI-H460; assay: Cytotoxicity against human NCI-H460 cells after 48 hrs by sulforhodamine B assay; type: functional; settings: NCI-H460, 48 h
[33] = test system: HOP-62; assay: Cytotoxicity against human HOP62 cells after 48 hrs by sulforhodamine B assay; type: functional; settings: HOP-62, 48 h
[34] = test system: LOX IMVI; assay: Cytotoxicity against human LOXIMVI cells after 48 hrs by sulforhodamine B assay; type: functional

Compound | GI50 [1] | GI50 [2] | GI50 [3] | GI50 [4] | GI50 [5] | GI50 [6] | GI50 [7] | GI50 [8] | GI50 [9] | GI50 [10] | GI50 [11] | GI50 [12] | GI50 [13] | GI50 [14] | GI50 [15] | GI50 [17] | GI50 [18] | GI50 [19] | GI50 [20] | GI50 [21] | also measured
COc1ccc(C(=O)N/N=C/c2ccc(O)cc2O)cc1Nc1ccnc(C(F)(F)F)c1 | 631 nM | 794 nM | 631 nM | 1580 nM | 10000 nM | 398 nM | 7940 nM | 251 nM | 316 nM | 501 nM | 398 nM | 631 nM | 631 nM | 2510 nM | 501 nM | 398 nM | 316 nM | 2510 nM | 794 nM | 501 nM | Activity [16]: Non-toxic; GI50 [22]: 794 nM; GI50 [23]: 2510 nM; GI50 [24]: 316 nM; GI50 [25]: 316 nM; GI50 [26]: 794 nM; GI50 [27]: 501 nM; GI50 [28]: 251 nM; GI50 [29]: 158 nM; GI50 [30]: 794 nM; GI50 [31]: 631 nM; GI50 [32]: 3160 nM; GI50 [33]: 501 nM; GI50 [34]: 501 nM
O=C(N/N=C/c1ccc(O)cc1O)c1cccc(Nc2ccnc(C(F)(F)F)c2)c1 | 501 nM | 501 nM | 3160 nM | 2510 nM | 1260 nM | 631 nM | 3980 nM | 398 nM | 316 nM | 398 nM | 794 nM | 1260 nM | 1580 nM | 3160 nM | 631 nM | 1000 nM | 501 nM | 2000 nM | 6310 nM | 316 nM | GI50 [22]: 631 nM; GI50 [23]: 3980 nM; GI50 [24]: 1580 nM; GI50 [25]: 631 nM; GI50 [26]: 2000 nM; GI50 [27]: 2510 nM; GI50 [28]: 501 nM; GI50 [29]: 398 nM; GI50 [30]: 631 nM; GI50 [31]: 1260 nM; GI50 [32]: 3160 nM; GI50 [33]: 501 nM; GI50 [34]: 501 nM
CCOc1cccc(/C=N/NC(=O)c2cccc(Nc3ccnc(C(F)(F)F)c3)c2)c1O | 631 nM | 631 nM | 1000 nM | 1260 nM | 1000 nM | 316 nM | 3160 nM | 251 nM | 200 nM | 631 nM | 1260 nM | 1000 nM | 631 nM | 2000 nM | 1580 nM | 794 nM | 251 nM | 1000 nM | 7940 nM | 631 nM | GI50 [22]: 1260 nM; GI50 [23]: 2000 nM; GI50 [24]: 3160 nM; GI50 [25]: 631 nM; GI50 [26]: 2000 nM; GI50 [27]: 1260 nM; GI50 [28]: 398 nM; GI50 [29]: 158 nM; GI50 [30]: 794 nM; GI50 [31]: 794 nM; GI50 [32]: 1000 nM; GI50 [33]: 794 nM; GI50 [34]: 631 nM
O=C(N/N=C/c1cc(Cl)ccc1O)c1ccccc1Nc1ccnc(C(F)(F)F)c1 | 251 nM | 794 nM | 398 nM | 631 nM | 398 nM | 200 nM | 398 nM | 79.4 nM | 501 nM | 398 nM | 316 nM | 631 nM | 316 nM | 158 nM | 794 nM | 200 nM | 316 nM | 316 nM | 316 nM | 398 nM | GI50 [22]: 316 nM; GI50 [23]: 158 nM; GI50 [24]: 501 nM; GI50 [25]: 251 nM; GI50 [26]: 398 nM; GI50 [27]: 501 nM; GI50 [28]: 200 nM; GI50 [29]: 316 nM; GI50 [30]: 631 nM; GI50 [31]: 316 nM; GI50 [32]: 316 nM; GI50 [33]: 251 nM; GI50 [34]: 251 nM
